# Assay: Clinical bioavailability study: renal excretion of flavones over 24 h after oral rutin
# Assay type: in vivo, gesunden Probanden
# Conditions: Rutin molecularly dispersed in gelatin, taken by volunteers
# Source text: Die nahrungsbedingte Flavonausscheidung wurde dabei berücksichtigt und durch entsprechende Diätvorschriften möglichst gering gehalten.
# Die Analytik und Identifikation der Flavonausscheidungen kann z.B. wie folgt durchgeführt werden: • 1. Saure Spaltung ( 1 M Salzsäure) der in biologischen Flüssigkeiten (Urin) enthaltenen Flavonkonjugate. • 2. Festphasenextraktion mit Methanol zur Anreicherung der freigesetzten Flavone (z.B. Extrelut^R, Fa. Merck). • 3. HPLC-Analytik mit Diodenarray-Detektion und Identifizierung einzelner Flavone, zusätzlich elektrochemische Identifikation (anodisches Oxidationspotential).
# Die Empfindlichkeit der genannten Analytik ist >10 ng Flavon pro ml.
smiles,measurement,value
C[C@@H]1O[C@@H](OC[C@H]2O[C@@H](Oc3c(-c4ccc(O)c(O)c4)oc4cc(O)cc(O)c4c3=O)[C@H](O)[C@@H](O)[C@@H]2O)[C@H](O)[C@H](O)[C@H]1O [Rutin],Metaboliten in vivo,"Quercetin, Kämpferol und Isorhamnetin"

# — EP0577143A2, “Solid and liquid solutions of flavonoids” (ALFATEC-PHARMA GmbH, priority 1992, dated 1994)
